# Results from PMC7126309 (Bioorganic & Medicinal Chemistry, 2010).
# Target: SARS-CoV 3CL^pro (Severe acute respiratory syndrome coronavirus, UniProt P0C6X7)
# Format: biochemical
row,SMILES,Inhibition type
1,"O=c1cc(-c2ccc(O)c(-c3c(O)cc(O)c4c(=O)cc(-c5ccc(O)cc5)oc34)c2)oc2cc(O)cc(O)c12 [Compound 9, amentoflavone]",Noncompetitive (13.8 ± 1.5)
2,"COc1ccc(-c2cc(=O)c3c(O)cc(O)cc3o2)cc1-c1c(O)cc(O)c2c(=O)cc(-c3ccc(O)cc3)oc12 [Compound 10, bilobetin]",Noncompetitive (80.4 ± 4.0)
3,"COc1ccc(-c2cc(=O)c3c(O)cc(O)c(-c4cc(-c5cc(=O)c6c(O)cc(OC)cc6o5)ccc4OC)c3o2)cc1 [Compound 12, sciadopitysin]",Noncompetitive (35.6 ± 1.1)
4,"COc1cc(O)c2c(=O)cc(-c3ccc(OC)c(-c4c(O)cc(O)c5c(=O)cc(-c6ccc(O)cc6)oc45)c3)oc2c1 [Compound 11, ginkgetin]",Noncompetitive (30.2 ± 2.6)
